In the supplement of paper PMC10307832:

Tests used:
Experiment in all cases: relative viability (nuclei count vs DMSO), 5 days (fraction); higher = more cells survive
Dasatinib + Luminespib = compound: Cc1nc(Nc2ncc(C(=O)Nc3c(C)cccc3Cl)s2)cc(N2CCN(CCO)CC2)n1 [Dasatinib] + CCNC(=O)c1noc(-c2cc(C(C)C)c(O)cc2O)c1-c1ccc(CN2CCOCC2)cc1 [Luminespib] (partner 0.01 µM)
How it was run: (§1)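 Relative viability equals treated-well nuclei counts divided by vehicle-well nuclei counts. Counts came from 4× images of lung cancer cell lines grown in 1536-well plates for 5 days after pin-tool dosing on the day after seeding. Dosing used one drug alone or a fixed anchor-drug dose plus five library-drug doses (not always all listed) in √10 steps, and values are medians of duplicate plates.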

Dasatinib + OSI-027 = compound: Cc1nc(Nc2ncc(C(=O)Nc3c(C)cccc3Cl)s2)cc(N2CCN(CCO)CC2)n1 [Dasatinib] + COc1cccc2cc(-c3nc([C@H]4CC[C@H](C(=O)O)CC4)n4ncnc(N)c34)[nH]c12 [OSI-027] (partner 0.5 µM)
How it was run: as §1

Dasatinib + Vorinostat = compound: Cc1nc(Nc2ncc(C(=O)Nc3c(C)cccc3Cl)s2)cc(N2CCN(CCO)CC2)n1 [Dasatinib] + O=C(CCCCCCC(=O)Nc1ccccc1)NO [Vorinostat] (partner 1 µM)
How it was run: as §1

Dasatinib + AZD7762 = compound: Cc1nc(Nc2ncc(C(=O)Nc3c(C)cccc3Cl)s2)cc(N2CCN(CCO)CC2)n1 [Dasatinib] + NC(=O)Nc1cc(-c2cccc(F)c2)sc1C(=O)N[C@H]1CCCNC1 [AZD7762] (partner 0.2 µM)
How it was run: as §1

Cell Line	relative viability (Dasatinib + Luminespib; first compound 0.005 µM)	relative viability (Dasatinib + Luminespib; first compound 0.01581 µM)	relative viability (Dasatinib + Luminespib; first compound 0.05 µM)	relative viability (Dasatinib + Luminespib; first compound 0.1581 µM)	relative viability (Dasatinib + Luminespib; first compound 0.5 µM)	relative viability (Dasatinib + OSI-027; first compound 0.005 µM)	relative viability (Dasatinib + OSI-027; first compound 0.01581 µM)	relative viability (Dasatinib + OSI-027; first compound 0.05 µM)	relative viability (Dasatinib + OSI-027; first compound 0.1581 µM)	relative viability (Dasatinib + OSI-027; first compound 0.5 µM)	relative viability (Dasatinib + Vorinostat; first compound 0.005 µM)	relative viability (Dasatinib + Vorinostat; first compound 0.01581 µM)	relative viability (Dasatinib + Vorinostat; first compound 0.05 µM)	relative viability (Dasatinib + Vorinostat; first compound 0.1581 µM)	relative viability (Dasatinib + Vorinostat; first compound 0.5 µM)	relative viability (Dasatinib + AZD7762; first compound 0.005 µM)	relative viability (Dasatinib + AZD7762; first compound 0.01581 µM)	relative viability (Dasatinib + AZD7762; first compound 0.05 µM)	relative viability (Dasatinib + AZD7762; first compound 0.1581 µM)	relative viability (Dasatinib + AZD7762; first compound 0.5 µM)
201T	0.998	0.81	0.836	0.548	0.378	0.662	0.567	0.597	0.386	0.211	0.912	0.723	0.792	0.649	0.346	0.848	0.635	0.493	0.455	0.302
A-427	0.742	0.704	0.739	0.673	0.486	0.464	0.338	0.411	0.342	0.37	0.831	0.766	0.793	0.517	0.495	0.72	0.745	0.536	0.52	0.519
ABC-1	0.562	0.52	0.314	0.411	0.293	0.506	0.429	0.363	0.36	0.345	1.18	1.17	0.731	0.787	0.706	0.74	0.689	0.758	0.747	0.383
BEN	0.439	0.547	0.266	0.2	0.269	0.262	0.233	0.218	0.214	0.187	0.577	0.445	0.417	0.371	0.368	0.747	0.558	0.483	0.402	0.43
CAL-12T	0.794	0.374	0.334	0.129	0.072	0.845	0.819	0.846	0.375	0.221	1.02	0.846	0.708	0.477	0.225	0.637	0.584	0.681	0.613	0.538
COR-L23	0.698	0.531	0.7	0.461	0.299	0.628	0.612	0.61	0.46	0.375	0.419	0.342	0.323	0.237	0.24					
COR-L 105	0.67	0.588	0.637	0.571	0.22	0.555	0.467	0.418	0.262	0.222	0.891	0.58	0.683	0.445	0.363					
ChaGo-K-1	0.555	0.543	0.591	0.486	0.366	0.556	0.501	0.52	0.459	0.423	0.735	0.737	0.704	0.565	0.47	0.854	0.77	0.822	0.705	0.549
EKVX	0.797	0.665	0.808	0.637	0.207	0.66	0.508	0.546	0.355	0.123	0.725	0.642	0.6	0.355	0.267	0.684	0.663	0.515	0.221	0.172
EMC-BAC-2	0.978	0.93	0.942	0.558	0.44	0.315	0.264	0.259	0.192	0.152	0.392	0.308	0.273	0.22	0.172	1.05	1.03	0.776	0.591	0.391
EPLC-272H	0.679	0.392	0.512	0.121	0.111	0.33	0.338	0.252	0.29	0.091	0.539	0.401	0.335	0.276	0.162	0.222	0.245	0.173	0.125	0.147
H3255	0.919	0.901	0.793	0.919	0.371	0.639	0.484	0.653	0.44	0.274	0.826	0.789	0.777	0.828	0.37	0.899	0.856	0.832	0.686	0.372
HARA	0.774	0.552	0.413	0.207	0.133	0.339	0.4	0.375	0.156	0.0755	0.508	0.474	0.438	0.272	0.274	0.31	0.129	0.298	0.291	0.184
HCC-15	0.381	0.316	0.248	0.247	0.108	0.641	0.652	0.526	0.412	0.454	0.85	0.719	0.842	0.655	0.669	1.37	1.12	1.07	0.897	0.585
HCC-44	1.15	1.01	0.733	0.604	0.453	0.65	0.754	0.466	0.337	0.273	1.26	1.03	1.32	1.16	0.867	1.07	0.992	1.19	1.33	1.1
HCC-78						0.317	0.361	0.267	0.326	0.257	0.373	0.354	0.324	0.336	0.219	0.668	0.618	0.472	0.372	0.226
HCC-366						0.662	0.338	0.365	0.375	0.243	0.377	0.225	0.312	0.238	0.22	0.234	0.248	0.143	0.159	0.0931
HCC-827	0.672	0.409	0.335	0.127	0.123	0.805	0.745	0.557	0.456	0.119	0.787	0.744	0.742	0.615	0.157	0.215	0.176	0.127	0.114	0.146
HOP-62	0.853	0.858	0.92	0.648	0.485	0.856	0.864	0.743	0.546	0.196	0.738	0.606	0.642	0.293	0.132	0.481	0.585	0.626	0.268	0.167

Cell Line	relative viability (Dasatinib + Luminespib; first compound 0.005 µM)	relative viability (Dasatinib + Luminespib; first compound 0.01581 µM)	relative viability (Dasatinib + Luminespib; first compound 0.05 µM)	relative viability (Dasatinib + Luminespib; first compound 0.1581 µM)	relative viability (Dasatinib + Luminespib; first compound 0.5 µM)	relative viability (Dasatinib + OSI-027; first compound 0.005 µM)	relative viability (Dasatinib + OSI-027; first compound 0.01581 µM)	relative viability (Dasatinib + OSI-027; first compound 0.05 µM)	relative viability (Dasatinib + OSI-027; first compound 0.1581 µM)	relative viability (Dasatinib + OSI-027; first compound 0.5 µM)	relative viability (Dasatinib + Vorinostat; first compound 0.005 µM)	relative viability (Dasatinib + Vorinostat; first compound 0.01581 µM)	relative viability (Dasatinib + Vorinostat; first compound 0.05 µM)	relative viability (Dasatinib + Vorinostat; first compound 0.1581 µM)	relative viability (Dasatinib + Vorinostat; first compound 0.5 µM)	relative viability (Dasatinib + AZD7762; first compound 0.005 µM)	relative viability (Dasatinib + AZD7762; first compound 0.01581 µM)	relative viability (Dasatinib + AZD7762; first compound 0.05 µM)	relative viability (Dasatinib + AZD7762; first compound 0.1581 µM)	relative viability (Dasatinib + AZD7762; first compound 0.5 µM)
IA-LM											1.13	0.89	1.03	0.691	0.538					
LC-2-ad	1.1	1.11	0.86	0.774	0.376	0.932	0.867	0.526	0.34	0.345	0.723	0.675	0.75	0.493	0.337	0.871	0.727	0.599	0.337	0.268
LCLC-97TM1	0.844	0.798	0.901	0.598	0.309	0.557	0.598	0.55	0.606	0.38	0.91	0.829	0.905	0.523	0.35	0.161	0.274	0.218	0.17	0.0853
LCLC-103H	0.83	0.88	0.733	0.52	0.275	0.437	0.38	0.403	0.38	0.146	0.852	0.787	0.694	0.582	0.293	0.695	0.666	0.628	0.523	0.331
LK-2	0.188	0.194	0.156	0.158	0.195	0.2	0.174	0.158	0.167	0.172	0.314	0.288	0.21	0.19	0.148	0.31		0.191	0.0866	0.129
NCI-H520	0.184	0.209	0.221	0.194	0.197	0.24	0.144	0.158	0.151	0.133	0.677	0.476	0.418	0.227	0.229					
NCI-H661	0.99	1.02	1	0.844	0.657	0.686	0.604	0.586	0.522	0.402	0.927	0.791	0.851	0.813	0.74					
NCI-H1563	0.546	0.466	0.495	0.423	0.405	0.702	0.691	0.626	0.618	0.541										
NCI-H1623	0.414	0.401	0.49	0.412	0.319	0.423	0.393	0.396	0.462	0.339										
NCI-H1648						0.264	0.274	0.306	0.268	0.24	0.374	0.481	0.606	0.266	0.179	0.677	0.725	0.724	0.369	0.254
NCI-H1650	0.228	0.199	0.236	0.177	0.187	0.571	0.355	0.318	0.219	0.171	0.591	0.61	0.568	0.406	0.278					
NCI-H1703																0.128	0.121	0.139	0.116	0.13
NCI-H1792	0.467	0.306	0.244	0.249	0.2	0.774	0.559	0.681	0.461	0.333						0.62	0.532	0.489	0.19	0.0904
NCI-H2009	1.05	1.02	1.1	0.605	0.168	0.698	0.501	0.407	0.189	0.158	0.75	0.681	0.762	0.426	0.133					
NCI-H2023	0.646	0.669	0.599	0.518	0.507	0.418	0.326	0.248	0.26	0.211	0.681	0.688	0.568	0.561	0.429					
NCI-H2228	0.158	0.095	0.145	0.0907	0.101	0.757	0.552	0.522	0.31	0.308	0.618	0.564	0.333	0.387	0.388					
SK-LU-1	0.162	0.15	0.151	0.104	0.118	0.271	0.167	0.167	0.14	0.152	0.686	0.647	0.473	0.278	0.246					
SK-MES-1	0.844	0.656	0.353	0.128	0.154	0.738	0.57	0.409	0.21	0.14	1.19	0.961	0.977	0.503	0.206					
SW 1573	0.211	0.216	0.272	0.139	0.154	0.638	0.532	0.393	0.408	0.296	0.968		0.649	0.538	0.491					
